Each block holds one compound with its values, some of them ahead of it.
What was measured:
[1] = test system: P. falciparum 3D7 trophozoites; experiment: Metabolomic fingerprint profiling LC-MS; format: cell-based, Plasmodium falciparum; parameters: UDP-D-glucose / ADP-D-glucose: unit not given here; details: for Acetyllysine / N-acetyl-L-ornithine / N-carbamoyl-L-aspartate / NADPH / dAMP / dCMP / dTDP / dTMP / dTTP / dihydroorotate / orotate / DLH / DLS/SDL/SID / PD / PEE / PVNF / 3-phosphoglycerate / ADP-D-glucose / ATP / CDP / D-sedoheptulose-1/7-phosphate / FAD / GMP / NAD+ / NADP+ / Octoluse Bisphosphate / Pyroglutamic acid / UDP-D-glucose / UDP-D-glucuronate / UDP-N-acetyl-glucosamine / UDP / UMP / UTP / a-ketoglutarate / citrate/isocitrate / cytidine / dATP / dGMP/AMP / fumarate / glucose-1/6-phosphate / glycerate / guanine / guanosine / hypoxanthine / indole / inosine / nicotinate / ornithine / phosphoenolpyruvate / pyruvate / ribose-phosphate / sarcosine/alanine / sn-glycerol-3-phosphate / succinate/methylmalonic acid / uridine / xanthosine: S2 Table Metabolomics; for Acetyllysine: metabolite Acetyllysine; for N-acetyl-L-ornithine: metabolite N-acetyl-L-ornithine; for N-carbamoyl-L-aspartate: metabolite N-carbamoyl-L-aspartate; for NADPH: metabolite NADPH; for dAMP: metabolite dAMP; for dCMP: metabolite dCMP; for dTDP: metabolite dTDP; for dTMP: metabolite dTMP; for dTTP: metabolite dTTP; for dihydroorotate: metabolite dihydroorotate; for orotate: metabolite orotate; for DLH: peptide DLH; for DLS/SDL/SID: peptide DLS/SDL/SID; for PD: peptide PD; for PEE: peptide PEE; for PVNF: peptide PVNF; for 3-phosphoglycerate: metabolite 3-phosphoglycerate; for ADP-D-glucose: metabolite ADP-D-glucose; for ATP: metabolite ATP; for CDP: metabolite CDP; for CDP / D-sedoheptulose-1/7-phosphate / GMP / Octoluse Bisphosphate / UDP / UMP / UTP / citrate/isocitrate / dGMP/AMP / fumarate / glucose-1/6-phosphate / glycerate / guanine / guanosine / inosine / pyruvate / sarcosine/alanine / succinate/methylmalonic acid / uridine / xanthosine: change in metabolite level after compound treatment; for D-sedoheptulose-1/7-phosphate: metabolite D-sedoheptulose-1/7-phosphate; for FAD: metabolite FAD; for GMP: metabolite GMP; for NAD+: metabolite NAD+; for NADP+: metabolite NADP+; for Octoluse Bisphosphate: metabolite Octoluse Bisphosphate; for Pyroglutamic acid: metabolite Pyroglutamic acid; for UDP-D-glucose: metabolite UDP-D-glucose; for UDP-D-glucuronate: metabolite UDP-D-glucuronate; for UDP-N-acetyl-glucosamine: metabolite UDP-N-acetyl-glucosamine; for UDP: metabolite UDP; for UMP: metabolite UMP; for UTP: metabolite UTP; for a-ketoglutarate: metabolite a-ketoglutarate; for citrate/isocitrate: metabolite citrate/isocitrate; for cytidine: metabolite cytidine; for dATP: metabolite dATP; for dGMP/AMP: metabolite dGMP/AMP; for fumarate: metabolite fumarate; for glucose-1/6-phosphate: metabolite glucose-1/6-phosphate; for glycerate: metabolite glycerate; for guanine: metabolite guanine; for guanosine: metabolite guanosine; for hypoxanthine: metabolite hypoxanthine; for indole: metabolite indole; for inosine: metabolite inosine; for 2_3-Diphosphoglyceric acid / 4-phosphopantothenate / 6-phospho-D-gluconate / FMN / IMP / Pyrophosphate / Sedoheptoluse bisphosphate / cyclic-AMP / glutathione disulfide / lactate / myo-inositol: metabolite level change after treatment; for nicotinate: metabolite nicotinate; for ornithine: metabolite ornithine; for phosphoenolpyruvate: metabolite phosphoenolpyruvate; for pyruvate: metabolite pyruvate; for ribose-phosphate: metabolite ribose-phosphate; for sarcosine/alanine: metabolite sarcosine/alanine; for sn-glycerol-3-phosphate: metabolite sn-glycerol-3-phosphate; for succinate/methylmalonic acid: metabolite succinate/methylmalonic acid; for uridine: metabolite uridine; for xanthosine: metabolite xanthosine
P. falciparum = experiment: EC50 listed in S2 Table Metabolomics (used to set the concentration tested); format: cell-based; details: Plasmodium falciparum; EC50 used for Factor_XEC50 in metabolomics; read-out: EC50_nM

- EC50 (P. falciparum): 0.135 µM
Compound: CSC1=NC(=Nc2c(C)cccc2C)C2(CCC(C(C)(C)C)CC2)N1c1ccc(Cl)cc1 (stereo not drawn) [MMV666596]
- Acetyllysine [1]: 0.05532
- N-acetyl-L-ornithine [1]: 0.3033
- N-carbamoyl-L-aspartate [1]: 4.209
- NADPH [1]: 0.4611
- dAMP [1]: -1.695
- dCMP [1]: -0.02373
- dTDP [1]: -0.6033
- dTMP [1]: -0.6441
- dTTP [1]: -0.4211
- dihydroorotate [1]: 4.453
- orotate [1]: -0.2494
- DLH [1]: 0.07485
- DLS/SDL/SID [1]: 0.1058
- PD [1]: 0.3494
- PEE [1]: 0.3362
- PVNF [1]: -0.2122
- 3-phosphoglycerate [1]: 0.06499
- ADP-D-glucose [1]: 0.1455
- ATP [1]: -0.04037
- CDP [1]: -0.436
- D-sedoheptulose-1/7-phosphate [1]: -0.1476
- FAD [1]: 0.02917
- GMP [1]: -0.07998
- NAD+ [1]: -0.07608
- NADP+ [1]: 0.2106
- Octoluse Bisphosphate [1]: -0.01707
- Pyroglutamic acid [1]: -0.1892
- UDP-D-glucose [1]: -0.01772
- UDP-D-glucuronate [1]: -0.05432
- UDP-N-acetyl-glucosamine [1]: -0.1657
- UDP [1]: -0.847
- UMP [1]: -0.5062
- UTP [1]: -0.6788
- a-ketoglutarate [1]: -0.3441
- citrate/isocitrate [1]: -0.1956
- cytidine [1]: -0.05016
- dATP [1]: 0.3608
- dGMP/AMP [1]: -0.2908
- fumarate [1]: 0.4042
- glucose-1/6-phosphate [1]: -0.3631
- glycerate [1]: -0.704
- guanine [1]: -0.05943
- guanosine [1]: 0.2542
- hypoxanthine [1]: -0.3496
- indole [1]: -0.1947
- inosine [1]: -0.267
- 2_3-Diphosphoglyceric acid [1]: 0.06366
- 4-phosphopantothenate [1]: -0.3594
- 6-phospho-D-gluconate [1]: 0.1204
- FMN [1]: 0.0335
- IMP [1]: -0.08883
- Pyrophosphate [1]: 0.1408
- Sedoheptoluse bisphosphate [1]: 0.09241
- cyclic-AMP [1]: -0.008887
- glutathione disulfide [1]: 0.04205
- lactate [1]: -0.4137
- myo-inositol [1]: -0.699
- nicotinate [1]: -0.1654
- ornithine [1]: 0.2004
- phosphoenolpyruvate [1]: 0.0459
- pyruvate [1]: -0.8143
- ribose-phosphate [1]: 0.02121
- sarcosine/alanine [1]: -0.1953
- sn-glycerol-3-phosphate [1]: 0.3928
- succinate/methylmalonic acid [1]: 0.09915
- uridine [1]: -0.4544
- xanthosine [1]: -0.03694

- EC50 (P. falciparum): 0.232 µM
Compound: CCOC(=O)c1cnc2c(C)cc(C)cc2c1Nc1ccc(OC)c(OC)c1 [MMV008294]
- Acetyllysine [1]: -0.3425
- N-acetyl-L-ornithine [1]: -0.09501
- N-carbamoyl-L-aspartate [1]: 2.682
- NADPH [1]: 1.75
- dAMP [1]: 0.2089
- dCMP [1]: -0.6198
- dTDP [1]: -0.4672
- dTMP [1]: -0.4876
- dTTP [1]: -1.144
- dihydroorotate [1]: 3.3871
- orotate [1]: -0.7416
- DLH [1]: -0.5675
- DLS/SDL/SID [1]: -0.4346
- PD [1]: -0.1287
- PEE [1]: -0.648
- PVNF [1]: -0.7723
- 3-phosphoglycerate [1]: -0.683
- ADP-D-glucose [1]: -0.352
- ATP [1]: -0.07176
- CDP [1]: -0.1705
- D-sedoheptulose-1/7-phosphate [1]: -0.3446
- FAD [1]: 0.0322
- GMP [1]: -0.1695
- NAD+ [1]: -0.3043
- NADP+ [1]: -0.3797
- Octoluse Bisphosphate [1]: -0.4297
- Pyroglutamic acid [1]: 0.3043
- UDP-D-glucose [1]: -0.27
- UDP-D-glucuronate [1]: -0.2831
- UDP-N-acetyl-glucosamine [1]: -0.5063
- UDP [1]: -0.5787
- UMP [1]: -1.283
- UTP [1]: -1.136
- a-ketoglutarate [1]: -0.236
- citrate/isocitrate [1]: 0.7822
- cytidine [1]: 0.0959
- dATP [1]: 1.0046
- dGMP/AMP [1]: -0.5258
- fumarate [1]: -0.9618
- glucose-1/6-phosphate [1]: 0.01885
- glycerate [1]: 0.4536
- guanine [1]: 0.3469
- guanosine [1]: 2.083
- hypoxanthine [1]: 0.2152
- indole [1]: 0.4569
- inosine [1]: 0.05445
- 2_3-Diphosphoglyceric acid [1]: -0.768
- 4-phosphopantothenate [1]: -0.7166
- 6-phospho-D-gluconate [1]: -0.1153
- FMN [1]: 0.06908
- IMP [1]: -0.2706
- Pyrophosphate [1]: -0.2511
- Sedoheptoluse bisphosphate [1]: -0.4052
- cyclic-AMP [1]: -0.1956
- glutathione disulfide [1]: -0.2281
- lactate [1]: 0.2967
- myo-inositol [1]: 0.2424
- nicotinate [1]: 0.04647
- ornithine [1]: -0.4808
- phosphoenolpyruvate [1]: -0.6158
- pyruvate [1]: 0.09912
- ribose-phosphate [1]: -0.7165
- sarcosine/alanine [1]: -0.5269
- sn-glycerol-3-phosphate [1]: -0.7886
- succinate/methylmalonic acid [1]: 0.008672
- uridine [1]: -0.03724
- xanthosine [1]: 0.1462

- EC50 (P. falciparum): 0.179 µM
Compound: COc1ccc(C(C)=O)cc1N1C(=O)C2C(C1=O)C1(c3ccccc3)C(=O)C2(c2ccccc2)C(c2ccc(C)cc2)=C1c1ccc(C)cc1 (stereo not drawn) [MMV007695]
- Acetyllysine [1]: -0.2737
- N-acetyl-L-ornithine [1]: -0.4583
- N-carbamoyl-L-aspartate [1]: 0.3458
- NADPH [1]: 1.835
- dAMP [1]: 0.454
- dCMP [1]: -0.0001746
- dTDP [1]: 0.6225
- dTMP [1]: 0.1739
- dTTP [1]: 0.01162
- dihydroorotate [1]: -0.0741
- orotate [1]: 0.786
- DLH [1]: 0.4365
- DLS/SDL/SID [1]: 0.2312
- PD [1]: -1.42
- PEE [1]: 0.3408
- PVNF [1]: 0.2956
- 3-phosphoglycerate [1]: -0.5907
- ADP-D-glucose [1]: 0.2728
- ATP [1]: 0.4735
- CDP [1]: 0.708
- D-sedoheptulose-1/7-phosphate [1]: 1.674
- FAD [1]: 0.07228
- GMP [1]: -0.9101
- NAD+ [1]: 0.2072
- NADP+ [1]: 0.5403
- Octoluse Bisphosphate [1]: -1.5013
- Pyroglutamic acid [1]: 0.5983
- UDP-D-glucose [1]: 0.2909
- UDP-D-glucuronate [1]: 0.7314
- UDP-N-acetyl-glucosamine [1]: 0.05292
- UDP [1]: 0.6476
- UMP [1]: -1.868
- UTP [1]: 0.1535
- a-ketoglutarate [1]: 0.5943
- citrate/isocitrate [1]: 1.421
- cytidine [1]: 0.7161
- dATP [1]: 0.1897
- dGMP/AMP [1]: 0.2576
- fumarate [1]: -0.8988
- glucose-1/6-phosphate [1]: -0.6568
- glycerate [1]: -0.4271
- guanine [1]: 0.5906
- guanosine [1]: -0.9684
- hypoxanthine [1]: 0.7986
- indole [1]: 0.2572
- inosine [1]: -0.5212
- 2_3-Diphosphoglyceric acid [1]: -0.9184
- 4-phosphopantothenate [1]: -0.9898
- 6-phospho-D-gluconate [1]: -0.8607
- FMN [1]: -0.08531
- IMP [1]: -0.684
- Pyrophosphate [1]: -1.54
- Sedoheptoluse bisphosphate [1]: -1.405
- cyclic-AMP [1]: -0.504
- glutathione disulfide [1]: -0.8249
- lactate [1]: -1.404
- myo-inositol [1]: -3.565
- nicotinate [1]: 1.458
- ornithine [1]: -0.113
- phosphoenolpyruvate [1]: -0.01223
- pyruvate [1]: -0.001929
- ribose-phosphate [1]: -0.0001746
- sarcosine/alanine [1]: -1.812
- sn-glycerol-3-phosphate [1]: -1.169
- succinate/methylmalonic acid [1]: 0.009176
- uridine [1]: 0.3917
- xanthosine [1]: 0.304

Reference: publication PMC4965013, “Open Source Drug Discovery with the Malaria Box Compound Collection for Neglected Diseases and Beyond” (PLoS Pathogens, 2016)
